Assay results taken from patent publication US12403137B2, “Compounds and methods of use” (Tango Therapeutics, Inc., priority 2019, dated 2025).

Assays:
PRMT5 [1] = target: T1, PRMT5 (Homo sapiens, UniProt O14744); assay: PRMT5 inhibition assay with MTA as cofactor; format: biochemical; settings: against PRMT5 with MTA as cofactor
T1 construct: purchased Viva (custom protein)
Description: The Ki values can be calculated from the IC50 values as described in the Examples section. As detailed in the Examples section, for the assay performed in the presence of SAM, IC50=Ki×1.5 (Ki=IC50/1.5). For the assay performed in the presence of MTA, IC50=Ki×13.5 (Ki=IC50/13.5). Column 6 indicates the ratio between the Ki of compounds in the presence of SAM and the Ki of compounds in the presence of MTA

PRMT5 [2] = target: T1, PRMT5; assay: PRMT5 inhibition assay with no cofactor; format: biochemical; settings: against PRMT5 with no cofactor; read-out: No Co-factor IC50
[3] = system: HAP1 MTAP-intact cell line; assay: SDMA in-cell western assay, HAP1 MTAP-intact; format: cell-based; settings: Homo sapiens
Method: (§1) Table 1 also indicates IC50 values in an MTAP-isogenic cell line pair for exemplary compounds in an SDMA in-cell western assay (columns 7-8). HAP1 MTAP-intact is a cell line in which endogenous levels of MTAP are expressed, and HAP1 MTAP-deleted is an MTAP-null cell line. For Table 1, “a*” and “aa*” indicates an IC50 of <1 μM, “b*” and “bb*” indicates an IC50 equal to or greater than 1 μM but less than 10 μM, and “c*” and “cc*” indicates an IC50 of greater than or equal to 10 μM in the HAP1 MTAP-intact and the HAP1 MTAP-deleted assays, respectively. In column 9, “A*” indicates an IC50 ratio greater than or equal to 10 fold between the IC50 in the HAP1 MTAP-intact cell line and the HAP1 MTAP-deleted cell line; “B*” indicates an IC50 ratio greater than or equal to 3 fold but lower than 10 fold between the IC50 in the HAP1 MTAP-intact cell line and the HAP1 MTAP-deleted cell line; “C*” indicates an IC50 ratio of less than 3 fold between the IC50 in the HAP1 MTAP-intact cell line and the HAP1 MTAP-deleted cell line. Compounds with a ratio in the SDMA in-cell western assay of equal to or greater than 3 fold are considered MTAP-selective.

[4] = system: HAP1 MTAP-deleted cell line; assay: SDMA in-cell western assay, HAP1 MTAP-deleted; format: cell-based; settings: for IC50: Homo sapiens, HAP1 MTAP-deleted (MTAP-null) cell line; for MTAP Intact/Deleted Ratio: IC50 ratio HAP1 MTAP-intact / HAP1 MTAP-deleted, >=3 fold considered MTAP-selective
Method: as §1

T1 sequence (O14744 whole entry): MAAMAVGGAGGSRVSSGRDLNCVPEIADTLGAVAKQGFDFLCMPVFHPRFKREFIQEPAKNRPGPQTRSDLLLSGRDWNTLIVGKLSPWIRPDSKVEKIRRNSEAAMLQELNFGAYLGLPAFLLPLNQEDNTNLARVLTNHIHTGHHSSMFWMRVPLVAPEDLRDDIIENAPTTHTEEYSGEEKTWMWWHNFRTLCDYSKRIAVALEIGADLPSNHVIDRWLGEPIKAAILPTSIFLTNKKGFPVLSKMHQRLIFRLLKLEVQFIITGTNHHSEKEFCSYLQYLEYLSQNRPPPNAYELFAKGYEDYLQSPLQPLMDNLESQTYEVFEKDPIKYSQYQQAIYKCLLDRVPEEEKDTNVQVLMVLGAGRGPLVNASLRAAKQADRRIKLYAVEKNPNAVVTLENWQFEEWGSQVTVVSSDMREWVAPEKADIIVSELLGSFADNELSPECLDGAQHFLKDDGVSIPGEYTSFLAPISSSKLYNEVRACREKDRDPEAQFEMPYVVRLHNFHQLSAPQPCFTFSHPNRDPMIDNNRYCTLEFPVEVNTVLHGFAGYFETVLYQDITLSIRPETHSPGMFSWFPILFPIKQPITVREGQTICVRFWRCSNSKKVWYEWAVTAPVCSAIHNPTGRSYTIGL
T1 sequence (Q9BQA1 whole entry partner): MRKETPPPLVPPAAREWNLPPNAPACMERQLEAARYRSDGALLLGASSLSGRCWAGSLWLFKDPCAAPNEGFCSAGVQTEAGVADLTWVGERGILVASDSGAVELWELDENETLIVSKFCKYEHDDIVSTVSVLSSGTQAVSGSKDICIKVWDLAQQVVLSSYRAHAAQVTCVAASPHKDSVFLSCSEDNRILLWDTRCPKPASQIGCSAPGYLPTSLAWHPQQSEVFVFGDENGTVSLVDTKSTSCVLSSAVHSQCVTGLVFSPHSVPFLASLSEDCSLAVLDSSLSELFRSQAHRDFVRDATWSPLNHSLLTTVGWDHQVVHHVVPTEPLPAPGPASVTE

IC50 (PRMT5 [1]) [nM] | IC50 (PRMT5 [2]) [nM] | IC50 [3] [nM] | IC50 [4] [nM] | Compound | MTAP Intact/Deleted Ratio [4]
< 50 | 50 to 500 | – | – | CC(=O)N1CC(Nc2cc(C(=O)NCC[C@H]3Cc4ccc(OCc5ocnc5C)cc4CN3)nc(N3CCCCC3)n2)C1 (single isomer, unassigned) [83**] | –
50 to 500 | 500 to 5000 | – | – | CC(=O)N1CC(Nc2cc(C(=O)NCC[C@@H]3Cc4ccc(OCc5ocnc5C)cc4CN3)nc(N3CCCCC3)n2)C1 (single isomer, unassigned) [85**] | –
– | – | ≥ 10000 | < 1000 | Cc1ncoc1COc1ccc2c(c1)CN[C@H]([C@H](O)CNC(=O)c1ccnc(NC3CCC3)c1)C2 [Compound 15, 2-(cyclobutylamino)-N—((R)-2-hydroxy-2-((S)-7-((4-methyloxazol-5-yl)methoxy)-1,2,3,4-tetrahydroisoquinolin-3-yl)ethyl)isonicotinamide] | –
< 50 | 500 to 5000 | ≥ 10000 | < 1000 | Cc1ncoc1COc1cc2c(cc1F)C[C@@H]([C@H](O)CNC(=O)c1ccnc(NC3CCC3)c1)NC2 [Compound 65, 2-(cyclobutylamino)-N-[(2R)-2-[(3S)-6-fluoro-7-[(4-methyloxazol-5-yl)methoxy]-1,2,3,4-tetrahydroisoquinolin-3-yl]-2-hydroxy-ethyl]pyridine-4-carboxamide] | A* (an IC50 ratio greater than or equal to 10 fold between the IC50 in the HAP1 MTAP-intact cell line and the HAP1 MTAP-deleted cell line)
< 50 | 50 to 500 | ≥ 10000 | < 1000 | COCCN(C)c1cc(C(=O)NC[C@@H](O)[C@@H]2Cc3ccc(OCc4ocnc4C)cc3CN2)cc(NC2CCN(C(C)=O)CC2)n1 [Compound 66] | A* (an IC50 ratio greater than or equal to 10 fold between the IC50 in the HAP1 MTAP-intact cell line and the HAP1 MTAP-deleted cell line)
< 50 | 50 to 500 | ≥ 10000 | 1000 to 10000 | CC(=O)N1CC(Nc2cc(C(=O)NC[C@@H](O)[C@@H]3Cc4ccc(OCc5ocnc5C)cc4CN3)cc(N3CCN(C(C)C)CC3)n2)C1 [Compound 67] | C* (an IC50 ratio of less than 3 fold between the IC50 in the HAP1 MTAP-intact cell line and the HAP1 MTAP-deleted cell line)
< 50 | 50 to 500 | 1000 to 10000 | < 1000 | COCCN(C)c1cc(C(=O)NC[C@@H](O)[C@@H]2Cc3ccc(OCc4ocnc4C)cc3CN2)cc(NC2CC3(CCC3)C2)n1 [Compound 68] | A* (an IC50 ratio greater than or equal to 10 fold between the IC50 in the HAP1 MTAP-intact cell line and the HAP1 MTAP-deleted cell line)
< 50 | 50 to 500 | ≥ 10000 | 1000 to 10000 | COCCN(C)c1cc(C(=O)NC[C@@H](O)[C@@H]2Cc3ccc(OCc4ocnc4C)cc3CN2)cc(NC2CN(C(C)=O)C2)n1 [Compound 69] | C* (an IC50 ratio of less than 3 fold between the IC50 in the HAP1 MTAP-intact cell line and the HAP1 MTAP-deleted cell line)
< 50 | < 50 | < 1000 | < 1000 | Cc1ncoc1COc1ccc2c(c1)CN[C@H]([C@H](O)CNC(=O)c1cc(NC3CC4(CCC4)C3)nc(N3CCN(C(C)C)CC3)c1)C2 [Compound 70] | B* (an IC50 ratio greater than or equal to 3 fold but lower than 10 fold between the IC50 in the HAP1 MTAP-intact cell line and the HAP1 MTAP-deleted cell line)
< 50 | < 50 | ≥ 10000 | 1000 to 10000 | CC(=O)N1CCC(Nc2cc(C(=O)NC[C@@H](O)[C@@H]3Cc4ccc(OCc5ocnc5C)cc4CN3)cc(N3CCN(C(C)C)CC3)n2)CC1 [Compound 71] | B* (an IC50 ratio greater than or equal to 3 fold but lower than 10 fold between the IC50 in the HAP1 MTAP-intact cell line and the HAP1 MTAP-deleted cell line)
< 50 | 50 to 500 | – | < 1000 | COc1ccc(C(=O)N2CCc3cc(C(=O)NC[C@@H](O)[C@@H]4Cc5ccc(OCc6cnco6)cc5CN4)ccc3C2)cc1 [Compound 74, N-[(2R)-2-hydroxy-2-[(3S)-7-(oxazol-5-ylmethoxy)-1,2,3,4-tetrahydroisoquinolin-3-yl]ethyl]-2-(4-methoxybenzoyl)-3,4-dihydro-1H-isoquinoline-6-carboxamide] | –
< 50 | 500 to 5000 | 1000 to 10000 | – | COc1ccc(C(=O)N2CCc3cc(C(=O)NC[C@@H](O)[C@@H]4Cc5ccc(OCc6ccnn6C)cc5CN4)ccc3C2)cc1 [Compound 77, N-[(2R)-2-hydroxy-2-[(3S)-7-[(2-methylpyrazol-3-yl)methoxy]-1,2,3,4-tetrahydroisoquinolin-3-yl]ethyl]-2-(4-methoxybenzoyl)-3,4-dihydro-1H-isoquinoline-6-carboxamide] | –
< 50 | < 50 | – | – | Cc1ncoc1COc1ccc2c(c1)CN[C@H]([C@H](O)CNC(=O)c1cc(NC3CC4(CCC4)C3)nc(N3CCN(C(=O)C4CC4)CC3)n1)C2 [Compound 84] | –
< 50 | < 50 | – | – | Cc1ncoc1COc1ccc2c(c1)CN[C@H]([C@H](O)CNC(=O)c1cc(NC3CC4(CCC4)C3)nc(N3CCN(C(C)C)CC3)n1)C2 [Compound 86] | –

Compound | IC50 (PRMT5 [1]) [nM] | IC50 (PRMT5 [2]) [nM] | IC50 [3] [nM] | IC50 [4] [nM] | MTAP Intact/Deleted Ratio [4]
Cn1nccc1COc1ccc2c(c1)CN[C@H]([C@H](O)CNC(=O)c1ccnc(NC3CCC3)c1)C2 [Compound 14, 2-(cyclobutylamino)-N—((R)-2-hydroxy-2-((S)-7-((1-methyl-1H-pyrazol-5-yl)methoxy)-1,2,3,4-tetrahydroisoquinolin-3-yl)ethyl)isonicotinamide] | – | – | ≥ 10000 | < 1000 | –
O=C(NC[C@@H](O)[C@@H]1Cc2ccc(OCc3cnco3)cc2CN1)c1ccnc(NC2CCC2)c1 [Compound 19, 2-(cyclobutylamino)-N—((R)-2-hydroxy-2-((S)-7-(oxazol-5-ylmethoxy)-1,2,3,4-tetrahydroisoquinolin-3-yl)ethyl)isonicotinamide] | – | – | ≥ 10000 | 1000 to 10000 | –
CC(=O)N1CC(Nc2cc(C(=O)NC[C@@H](O)[C@@H]3Cc4ccc(OCc5ocnc5C)cc4CN3)nc(N3CCCCC3)n2)C1 [Compound 22, 6-((1-acetylazetidin-3-yl)amino)-N—((R)-2-hydroxy-2-((S)-7-((4-methyloxazol-5-yl)methoxy)-1,2,3,4-tetrahydroisoquinolin-3-yl)ethyl)-2-(piperidin-1-yl)pyrimidine-4-carboxamide] | – | – | 1000 to 10000 | < 1000 | –
CC(=O)N1CC2(CC(Nc3cc(C(=O)NC[C@@H](O)[C@@H]4Cc5ccc(OCc6ocnc6C)cc5CN4)nc(N4CCCCC4)n3)C2)C1 [Compound 48, 6-[(2-acetyl-2-azaspiro[3.3]heptan-6-yl)amino]-N-[(2R)-2-hydroxy-2-[(3S)-7-[(4-methyloxazol-5-yl)methoxy]-1,2,3,4-tetrahydroisoquinolin-3-yl]ethyl]-2-(1-piperidyl)pyrimidine-4-carboxamide] | – | – | < 1000 | < 1000 | –
CC(=O)N1CC(Nc2cc(C(=O)NC[C@@H](O)[C@@H]3Cc4ccc(OCc5ocnc5C)cc4CN3)nc(N3CCC(C)CC3)n2)C1 [Compound 62, 6-[(1-acetylazetidin-3-yl)amino]-N-[(2R)-2-hydroxy-2-[(3S)-7-[(4-methyloxazol-5-yl)methoxy]-1,2,3,4-tetrahydroisoquinolin-3-yl]ethyl]-2-(4-methyl-1-piperidyl)pyrimidine-4-carboxamide] | – | – | 1000 to 10000 | < 1000 | –
CC(=O)N1CC(Nc2cc(C(=O)NC[C@H](O)[C@@H]3Cc4ccc(OCc5ocnc5C)cc4CN3)nc(N3CCCCC3)n2)C1 [Compound 64] | – | – | – | 1000 to 10000 | –
CCOc1cc(C(=O)N2C3CCC2COC3)ccc1C(=O)NC[C@@H](O)[C@@H]1Cc2ccc(OCc3ccncc3)cc2CN1 [Compound 73, 2-ethoxy-N-[(2R)-2-hydroxy-2-[(3S)-7-(4-pyridylmethoxy)-1,2,3,4-tetrahydroisoquinolin-3-yl]ethyl]-4-(3-oxa-8-azabicyclo[3.2.1]octane-8-carbonyl)benzamide] | 50 to 500 | ≥ 5000 | – | 1000 to 10000 | –
CCOc1cc(C(=O)N2C3CCC2COC3)ccc1C(=O)NC[C@@H](O)[C@@H]1Cc2ccc(OCc3ccn[nH]3)cc2CN1 [Compound 76, 2-ethoxy-N-[(2R)-2-hydroxy-2-[(3S)-7-(1H-pyrazol-5-ylmethoxy)-1,2,3,4-tetrahydroisoquinolin-3-yl]ethyl]-4-(3-oxa-8-azabicyclo[3.2.1]octane-8-carbonyl)benzamide] | 50 to 500 | 500 to 5000 | ≥ 10000 | – | –
COCCN(C)c1nc(NC2CC3(CCC3)C2)cc(C(=O)NC[C@@H](O)[C@@H]2Cc3ccc(OCc4ocnc4C)cc3CN2)n1 [Compound 80] | – | – | 1000 to 10000 | < 1000 | –
